Assay in all cases: NCI tumour cell line growth inhibition, 48 h
The test system of assay [1] is EKVX NSCLC.
Assay [2] concerns IGROV1 ovarian.
In assay [3] the test system is SF-295 CNS.
The subject of assay [4] is U251 CNS.
Assay [5] concerns A549 NSCLC.
The subject of assay [6] is HL-60(TB) leukemia.
The subject of assay [7] is ACHN renal.
In assay [8] the test system is TK-10 renal.
For assay [9], the system named is CAKI-1 renal.
In assay [10] the test system is NCI-H522 lung.

Several values for one entry are separate records, joined by “and”; a condition that tells them apart may be missing. Identical values can stand only once.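 These data come from cells grown in 96-well plates and exposed to compound for 48 hours at five concentrations. The concentration for 50% growth inhibition is given as GI50. TGI denotes the concentration required for complete inhibition of growth.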 Where a SMILES comes first, the peptide text is derived from it. [ ]: non-standard residue; d: D form. 2Nal = N[CH](Cc1ccc2ccccc2c1)C(=O)O Bounds are passed on as bounds.

`COc1ccc(-c2c(N)[n+]([O-])c3cc(C)c(C)cc3[n+]2[O-])cc1OC`: the TGI in [1], in assay [2], in assay [3], in [4], in assay [5] and in assay [6] was over 100 µM throughout. Further, the TGI in assay [7] is over 100 µM; in assay [8], over 100 µM; in assay [9] it was over 100 µM; in assay [10] it was 37.8 µM.

For `COCCOC(C)C(/C=N/NC(N)=S)=N/NC(N)=S` (stereo not drawn), the GI50 was 0.0905 µM in [1]; over 100 µM in [4]; over 100 µM in assay [5]; over 100 µM in [7]; over 100 µM in [8]; over 100 µM in [9]. Besides, the GI50 in [10] was over 100 µM. Moreover, the TGI in [1] is over 100 µM; in [3] it was over 100 µM; in assay [4], over 100 µM; in assay [5] it was over 100 µM; in assay [6] it was over 58.9 µM; in assay [7], over 100 µM. The TGI in [8], in assay [9] and in assay [10] was over 100 µM in each case.

For `CN(C)CCCC1(c2ccc(F)cc2)OCc2cc(-c3ccc4cc[nH]c4c3)ccc21` (stereo not drawn), the GI50 is 2.04 µM in assay [1]; 1.73 µM in [2]; 1790 nM in assay [3]; 2.11 µM in [5]; 1740 nM in assay [6]; 2.12 µM in assay [7]. Also, the GI50 in assay [8] was 2.03 µM; in assay [9] it was 1.63 µM; in [10] it was 2.07 µM. Also, the TGI in [1] amounted to 5 µM; in assay [2], 3.61 µM; in assay [3], 3.31 µM; in assay [5], 4.57 µM; in assay [6], 3.77 µM; in [7] it was 4.82 µM. The TGI in assay [8] worked out at 4.09 µM; in assay [9], 3.11 µM; in assay [10], 4.49 µM.

With `Cc1ccnc2c1NC(=O)c1cccnc1N2C1CC1`, the GI50 in [1] is over 100 µM; in assay [2] it was over 100 µM; in [4], over 100 µM; in assay [5], over 100 µM; in assay [6] it was over 100000 nM; in [7], over 100 µM. Besides, the GI50 in [8], in assay [9] and in assay [10] was over 100 µM throughout. Further, the TGI in assay [1], in assay [2], in assay [4], in assay [5], in [6] and in [7] was over 100 µM each time. The TGI in assay [8], in [9] and in [10] was over 100 µM each time.

For `Clc1ccc2c(NCCCN3CCN(c4nc(-n5ccnc5)nc5ccccc45)CC3)ccnc2c1`, the GI50 in assay [1] was over 28.4 µM; in assay [2] it was 2.96 µM; in assay [3], 1880 nM; in assay [4], 1.89 µM; in [6] it was 2170 nM; in [7] it was over 23.4 µM. Moreover, the figures for the GI50 in assay [8] and in [9] were 1.72 µM and 8.91 µM, respectively. For the same molecule, the TGI in [1] is over 100 µM; in [2], 23.7 µM; in [3], 3.52 µM; in [4], 3.53 µM; in [6] it was 5.18 µM; in assay [7] it was over 56.5 µM. Besides, the TGI was 3.39 µM in [8] and over 22.3 µM in assay [10].

Regarding `c1ccc(-c2cc(-c3cc(-c4ccccn4)[nH]n3)n[nH]2)nc1`, the TGI in assay [1], in assay [2], in assay [3], in assay [4], in assay [5] and in [6] was over 100 µM each time. Also, the TGI in [7], in assay [9] and in assay [10] was over 100 µM each time.

Consider `O=C(NCCNCCO)c1ccc2oc3cc4ccccc4c(=O)n3c2c1`, for which the GI50 in assay [1] was 5.63 µM; in assay [2], 5.77 µM; in assay [3], 14800 nM; in assay [4], 8.52 µM; in assay [5], 17.6 µM; in [6] it was 11700 nM. Also, the GI50 is 9.93 µM in assay [8], 9.56 µM in [9] and 5.62 µM in assay [10]. Moreover, the TGI in [1] is 19.2 µM; in [2] it was 17.7 µM; in assay [3], over 50 µM; in assay [4] it was 17.1 µM; in [5], over 50 µM; in assay [6] it was 34 µM. The TGI amounted to 20.3 µM in [8], 29.6 µM in [9] and 14.2 µM in assay [10].

With `COC(=O)c1c2c(c(C)[n+]([O-])c1C)C(=O)C(NCc1ccc(F)c(Cl)c1)=CC2=O`, the GI50 was 1.93 µM in assay [1]; 1620 nM in assay [3]; 2.53 µM in [4]; 2.23 µM in assay [5]; 1390 nM in assay [6]; 2.1 µM in assay [7]. In addition, the GI50 in assay [8] was 3.76 µM; in assay [9], 2.52 µM; in [10], 1.82 µM. Besides, the TGI in assay [1] is 5.18 µM; in assay [3] it was 4.26 µM; in assay [4], 13.8 µM; in assay [5], 8.15 µM; in [6], 5.68 µM; in assay [7], 7.9 µM. In addition, the TGI in assay [8] came to 16 µM; in assay [9], 10.4 µM; in [10], 4.7 µM.

With `CC(NC(=O)C(N)Cc1ccccc1)C(=O)NC(Cc1ccc(O)cc1)C(=O)NC(Cc1c[nH]c2ccccc12)C(=O)NC(CCCCN)C(=O)NC(C(=O)NC(C)C(=O)NC(Cc1ccc2ccccc2c1)C(N)=O)C(C)C` (stereo not drawn) (H-FAYWKVA[2Nal]-NH2; configuration not given here), the GI50 was 25.9 µM in assay [1]; 24.1 µM in [2]; 25.1 µM in assay [4]; 20.7 µM in assay [5]; 18000 nM in assay [6]; 22.7 µM in assay [7]. The TGI is > 12.5 µM and 81 µM in [1]; > 12.5 µM and 49 µM in [2]; over 12.5 µM in assay [3]; > 12.5 µM and 67 µM in assay [4]; > 12.5 µM and 48.7 µM in assay [5]; > 12.5 µM and 31.9 µM in assay [6]. For the same molecule, the TGI in assay [7] is > 12.5 µM and 52.1 µM; in assay [9], > 12.5 µM and 39.1 µM; in [10], over 12.5 µM.

For the origin of these results see PubChem BioAssay (NCI).
